Measurements taken from the supplement of paper PMC10307832.

Key:
Test in all cases: relative viability (nuclei count vs DMSO), 5 days (fraction); higher = more cells survive
[1] = compound: COC1=CC(c2cc3ccccc3[nH]2)=N/C1=C\c1[nH]c(C)cc1C [Obatoclax] + Nc1ncn([C@H]2C[C@H](O)[C@@H](CO)O2)c(=O)n1 [Decitabine] (partner 2 µM)
How it was run: (§1)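 Lung cancer cell lines were seeded in 1536-well plates and dosed by pin tool the next day, with either a single drug or a fixed anchor-drug dose combined with five library-drug doses (not always all listed) spaced in √10 steps. Five days later, one step fixed the cells and stained their nuclei (final 0.05% Triton X-100, 1% formaldehyde, 1 ug/ml Hoechst), and nuclei were counted on 4× images. Relative viability is the nuclei count in treated wells divided by the count in vehicle wells, and each value is the median of duplicate plates.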

[2] = compound: CC(C)C[C@H](NC(=O)[C@H](Cc1ccccc1)NC(=O)c1cnccn1)B(O)O [Bortezomib] + NC(=O)Nc1cc(-c2cccc(F)c2)sc1C(=O)N[C@H]1CCCNC1 [AZD7762] (partner 0.2 µM)
How it was run: as §1

[3] = compound: CC1=CC(=NN1)NC2=CC(=NC(=N2)/C=C/C3=CC=CC=C3)N4CCN(CC4)C + CC1(C)CCC(c2ccc(Cl)cc2)=C(CN2CCN(c3ccc(C(=O)NS(=O)(=O)c4ccc(N[C@H](CCN5CCOCC5)CSc5ccccc5)c(S(=O)(=O)C(F)(F)F)c4)cc3)CC2)C1 [Navitoclax] (partner 0.5 µM)
How it was run: as §1

[4] = compound: CC1=CC(=NN1)NC2=CC(=NC(=N2)/C=C/C3=CC=CC=C3)N4CCN(CC4)C + COc1cc2c(Oc3ccc(NC(=O)C4(C(=O)Nc5ccc(F)cc5)CC4)cc3F)ccnc2cc1OCCCN1CCOCC1 [Foretinib] (partner 0.25 µM)
How it was run: as §1

Cell Line | relative viability ([1]; first compound 0.01 µM) | relative viability ([1]; first compound 0.03162 µM) | relative viability ([1]; first compound 0.1 µM) | relative viability ([1]; first compound 0.3162 µM) | relative viability ([1]; first compound 1 µM) | relative viability ([2]; first compound 0.0002 µM) | relative viability ([2]; first compound 0.000632 µM) | relative viability ([2]; first compound 0.002 µM) | relative viability ([2]; first compound 0.006325 µM) | relative viability ([2]; first compound 0.02 µM) | relative viability ([3]; first compound 0.08 µM) | relative viability ([3]; first compound 0.253 µM) | relative viability ([3]; first compound 0.8 µM) | relative viability ([3]; first compound 2.53 µM) | relative viability ([3]; first compound 8 µM) | relative viability ([4]; first compound 0.08 µM) | relative viability ([4]; first compound 0.253 µM) | relative viability ([4]; first compound 0.8 µM) | relative viability ([4]; first compound 2.53 µM) | relative viability ([4]; first compound 8 µM)
201T | 0.814 | 0.731 | 0.868 | 0.857 | 0.92 | 0.602 | 0.684 | 0.59 | 0.661 | 0.38 | 1.2 | 1.21 | 1.19 | 1.13 | 1.12 | 1.13 | 1.32 | 1.04 | 1.02 | 0.206
A549 | 0.205 | 0.122 |  | 0.282 | 0.309 |  |  |  |  |  | 1.1 | 1.19 | 0.985 | 0.0304 | 0.0283 | 1.03 | 0.914 | 0.616 | 0.0324 | 0.0167
A-427 | 0.528 | 0.525 | 0.491 | 0.614 | 0.504 | 0.719 | 0.872 | 0.763 | 0.197 | 0.146 | 1.04 | 1.02 | 0.991 | 0.627 | 0.164 | 0.993 | 1.06 | 0.993 | 0.586 | 0.142
ABC-1 | 1.38 | 1.31 | 0.999 | 1.17 | 1.07 |  | 0.712 | 0.184 | 0.223 | 0.191 |  |  |  |  |  | 1.01 | 1.13 | 0.956 | 0.195 | 0.228
BEN | 0.756 | 0.553 | 0.393 | 0.624 | 0.659 | 0.667 | 0.788 | 0.73 | 0.578 | 0.389 | 0.0566 | 0.0746 | 0.188 | 0.0803 | 0.0617 | 0.639 | 0.675 | 0.715 | 0.377 | 0.182
CAL-12T |  |  |  |  |  | 0.608 | 0.596 | 0.602 | 0.576 | 0.271 | 0.918 | 1.31 | 1.16 | 0.424 | 0.151 | 1.09 | 1.17 | 0.908 | 0.293 | 0.162
COR-L23 | 0.478 | 0.404 | 0.488 | 0.235 | 0.194 |  |  |  |  |  | 1.02 | 1.07 | 0.884 | 0.302 | 0.0578 | 0.967 | 1.01 | 0.904 | 0.211 | 0.107
COR-L 105 | 0.68 | 0.665 | 0.634 | 0.525 | 0.407 |  |  |  |  |  | 0.739 | 0.976 | 0.727 | 0.4 | 0.206 | 0.841 | 1.47 | 1.02 | 0.334 | 0.215
Calu-6 |  |  |  |  |  |  |  |  |  |  | 0.765 | 0.623 | 0.523 | 0.0678 | 0.0602 | 0.879 | 0.942 | 0.519 | 0.167 | 0.0898
ChaGo-K-1 | 0.497 | 0.476 | 0.506 | 0.509 | 0.516 | 0.847 | 0.716 | 0.886 | 0.691 | 0.164 | 0.893 | 1.12 | 1.24 | 0.298 | 0.272 | 0.952 | 0.915 | 0.79 | 0.353 | 0.186
EBC-1 |  |  |  |  |  |  |  |  |  |  | 0.387 | 0.396 | 0.285 | 0.154 | 0.147 | 0.107 | 0.115 | 0.103 | 0.106 | 0.0799
EKVX | 0.343 |  | 0.313 | 0.368 | 0.324 | 0.72 | 0.741 | 0.845 | 0.286 | 0.0785 | 0.946 | 1.24 | 1.03 | 0.755 | 0.131 | 0.761 | 0.786 | 1.14 | 0.504 | 0.213
EMC-BAC-2 | 0.95 | 0.977 |  | 0.98 | 0.541 | 1.09 | 1.04 | 1.04 | 0.573 | 0.436 | 1.1 | 1.11 | 1.07 | 0.719 | 0.266 | 0.957 | 1.04 | 0.936 | 0.534 | 0.234
EPLC-272H | 0.368 | 0.349 | 0.43 | 0.314 | 0.303 | 0.188 | 0.163 | 1.2 | 0.153 | 0.0636 | 1.07 | 1.32 | 0.987 | 0.598 | 0.339 | 0.639 | 0.708 | 0.4 | 0.171 | 0.0935
H3255 | 0.595 | 0.581 |  | 0.589 | 0.623 | 0.867 |  | 0.655 | 0.517 | 0.328 | 0.518 | 0.61 | 0.517 | 0.43 | 0.0832 | 0.799 | 1.1 | 0.822 | 0.756 | 0.631
HARA | 0.52 | 0.593 | 0.528 | 0.462 | 0.405 | 0.257 | 0.311 | 0.577 | 0.178 | 0.0909 | 1.17 | 1.16 | 1.13 | 0.982 | 0.238 | 0.932 | 0.909 | 0.794 | 0.098 | 0.0593
HCC-15 | 0.678 | 0.568 | 0.509 | 0.615 | 0.434 | 1.04 | 1.14 | 1.17 | 0.763 | 0.127 | 0.67 | 0.731 | 0.612 | 0.409 | 0.118 | 1.06 | 1.11 | 0.839 | 0.196 | 0.0908
HCC-44 | 0.968 | 0.643 | 0.966 | 0.902 | 0.84 | 0.959 | 0.985 | 1.01 | 1.04 | 0.239 | 0.967 | 1.01 | 0.965 | 0.912 | 0.436 |  |  |  |  | 
